In ChEMBL document CHEMBL1157124, “Synthesis and anticancer evaluation of alpha-lipoic acid derivatives” (Bioorg Med Chem Lett, 2010):

Experiments:
Assay type in all cases: functional
NCI-H460 [1] = assay: Cytotoxicity against human NCI-H460 cells assessed as growth inhibition at 0.1 ug/ml after 24 hrs by MTT assay; details: NCI-H460, 24 h, read-out: GI
KB [2] = assay: Cytotoxicity against human KB cells assessed as growth inhibition at 100 ug/ml after 24 hrs by MTT assay; details: read-out: GI
KB [3] = assay: Cytotoxicity against human KB cells assessed as growth inhibition at 10 ug/ml after 24 hrs by MTT assay; details: read-out: GI
KB [4] = assay: Cytotoxicity against human KB cells assessed as growth inhibition at 1 ug/ml after 24 hrs by MTT assay; details: read-out: GI
KB [5] = assay: Cytotoxicity against human KB cells assessed as growth inhibition at 0.1 ug/ml after 24 hrs by MTT assay; details: read-out: GI
Bel-7402 [6] = assay: Cytotoxicity against human Bel7402 cells assessed as growth inhibition at 100 ug/ml after 24 hrs by MTT assay; details: Bel-7402, 24 h, read-out: GI
Bel-7402 [7] = assay: Cytotoxicity against human Bel7402 cells assessed as growth inhibition at 10 ug/ml after 24 hrs by MTT assay; details: Bel-7402, 24 h, read-out: GI
Bel-7402 [8] = assay: Cytotoxicity against human Bel7402 cells assessed as growth inhibition at 1 ug/ml after 24 hrs by MTT assay; details: Bel-7402, 24 h, read-out: GI
Bel-7402 [9] = assay: Cytotoxicity against human Bel7402 cells assessed as growth inhibition at 0.1 ug/ml after 24 hrs by MTT assay; details: Bel-7402, 24 h, read-out: GI
NCI-H460 [10] = assay: Cytotoxicity against human NCI-H460 cells assessed as growth inhibition at 1 ug/ml after 24 hrs by MTT assay; details: NCI-H460, 24 h, read-out: GI
[11] = Cytotoxicity against human HO8910 cells assessed as growth inhibition at 0.1 ug/ml after 24 hrs by MTT assay; details: HO-8910, 24 h, read-out: GI
NCI-H460 [12] = assay: Cytotoxicity against human NCI-H460 cells assessed as growth inhibition at 100 ug/ml after 24 hrs by MTT assay; details: NCI-H460, 24 h, read-out: GI
[13] = Cytotoxicity against human HO8910 cells assessed as growth inhibition at 1 ug/ml after 24 hrs by MTT assay; details: HO-8910, 24 h, read-out: GI
NCI-H460 [14] = assay: Cytotoxicity against human NCI-H460 cells assessed as growth inhibition at 10 ug/ml after 24 hrs by MTT assay; details: NCI-H460, 24 h, read-out: GI
[15] = Cytotoxicity against human HO8910 cells assessed as growth inhibition at 100 ug/ml after 24 hrs by MTT assay; details: HO-8910, 24 h, read-out: GI
[16] = Cytotoxicity against human HO8910 cells assessed as growth inhibition at 10 ug/ml after 24 hrs by MTT assay; details: HO-8910, 24 h, read-out: GI

| Structure (SMILES) | inhibition of growth at 0.1 µg/mL (NCI-H460 [1]) [%] | inhibition of growth at 100 µg/mL (KB [2]) [%] | inhibition of growth at 10 µg/mL (KB [3]) [%] | inhibition of growth at 1 µg/mL (KB [4]) [%] | inhibition of growth at 0.1 µg/mL (KB [5]) [%] | inhibition of growth at 100 µg/mL (Bel-7402 [6]) [%] | inhibition of growth at 10 µg/mL (Bel-7402 [7]) [%] | inhibition of growth at 1 µg/mL (Bel-7402 [8]) [%] | inhibition of growth at 0.1 µg/mL (Bel-7402 [9]) [%] | inhibition of growth at 1 µg/mL (NCI-H460 [10]) [%] | inhibition of growth at 0.1 µg/mL [11] [%] | inhibition of growth at 100 µg/mL (NCI-H460 [12]) [%] | inhibition of growth at 1 µg/mL [13] [%] | inhibition of growth at 10 µg/mL (NCI-H460 [14]) [%] | inhibition of growth at 100 µg/mL [15] [%] | inhibition of growth at 10 µg/mL [16] [%] |
| --- | --- | --- | --- | --- | --- | --- | --- | --- | --- | --- | --- | --- | --- | --- | --- | --- |
| O=C(CCCCC1CCSS1)NO (stereo not drawn) | 3.9 | 12.4 | 0.89 | 2.57 | 7.92 | 12.5 | 11.8 | 7.39 | 10.4 | 0.64 | – | – | – | – | – | – |
| O=C(CCCCC(S)CCS)Nc1cccc2ccccc12 (stereo not drawn) | – | – | – | – | – | – | – | 0.69 | – | – | 0.76 | 2.18 | – | – | – | – |
| O=C(CCCCC(CCSC(=O)c1ccccc1)SC(=O)c1ccccc1)Nc1cccc(Cl)c1 (stereo not drawn) | 15.6 | – | 16.6 | 12.7 | 10.7 | – | – | – | 1.7 | 9.48 | 9.02 | – | 3.38 | 9.12 | – | – |
| O=C(CCCCC(S)CCS)Nc1ccc([N+](=O)[O-])cc1 (stereo not drawn) | 5.69 | 41.1 | 13.7 | 0.93 | – | 33.4 | 14.4 | 1.73 | 1.88 | 4.64 | – | 39.1 | 0.76 | 13.4 | 51.2 | 8.96 |
| O=C(CCCCC1CCSS1)Nc1ccc(Br)cn1 (stereo not drawn) | 9 | 42.3 | 35.1 | 4.33 | – | 45.5 | 24.5 | 13.1 | – | 13.1 | – | 52 | 4.27 | 38 | 32.1 | 29.6 |
| COc1ccc(NC(=O)CCCCC(S)CCS)cc1 (stereo not drawn) | 5.69 | 22.2 | 8.93 | 2.49 | – | 22.5 | 10.4 | 3.96 | 5.35 | – | – | 23.5 | 1.79 | 1.43 | 12.6 | 4.14 |
| O=C(CCCCC(S)CCS)Nc1ccccn1 (stereo not drawn) | 5.01 | 18.5 | 0.28 | – | – | 3.62 | – | – | – | 2.31 | – | 11.7 | – | – | 14.2 | – |
| O=C(CCCCC(CCSC(=O)c1ccccc1)SC(=O)c1ccccc1)Nc1ccccc1 (stereo not drawn) | 0.6 | – | 2.67 | – | 1.52 | – | – | – | – | 5.93 | 3.12 | – | 3.79 | 11.4 | – | – |
| O=C(CCCCC1CCSS1)Nc1ccccn1 (stereo not drawn) | 2.61 | 25.1 | – | – | – | 37.6 | 5.77 | – | 0.89 | 0.81 | 1.14 | 39.3 | – | – | 51.9 | – |
| CC(=O)SCCC(CCCCC(=O)O)SC(C)=O (stereo not drawn) | 9.96 | 8.03 | 8.88 | 12.4 | 7.24 | 8.35 | 9.22 | 12.8 | 10.3 | 9.89 | – | 11 | – | 6.04 | – | 1.61 |
| Cc1cccc(NC(=O)CCCCC(S)CCS)c1 (stereo not drawn) | 9.34 | 17.5 | 7.23 | 3.31 | 5.75 | 7.08 | 14.1 | 11.1 | 10.1 | 9.43 | 4.92 | 23.1 | 2.76 | 7.67 | – | – |
| O=C(CCCCC(S)CCS)Nc1ccccc1Cl (stereo not drawn) | 6.36 | – | – | – | – | – | – | 3.08 | 5.11 | 8.19 | 6.11 | 12.1 | 7.72 | 18.2 | – | – |
| O=C(CCCCC(S)CCS)Nc1ccc(Br)cn1 (stereo not drawn) | 6.4 | 59.2 | 34.1 | 2.51 | – | 41.1 | 23.2 | 4.71 | – | 10.7 | – | 55.9 | 2.51 | 39.2 | 56.8 | 29.4 |
| O=C(CCCCC1CCSS1)Nc1cccc2ccccc12 (stereo not drawn) | 2.36 | – | – | 8.37 | – | 7.22 | 6.27 | 9.55 | 3.4 | 4.15 | 0.34 | – | 6.95 | – | – | – |
| O=C(CCCCC(S)CCS)Nc1ccc(Cl)cc1 (stereo not drawn) | – | 44.1 | 18.2 | 13.3 | 9.11 | 25.5 | 1.16 | 0.27 | 1.06 | 6.76 | 1.04 | 40.9 | 2.81 | 21.9 | 21.3 | – |
| O=C(CCCCC(S)CCS)NO (stereo not drawn) | 5.7 | 58 | 41.5 | 10.6 | 7.62 | 47.5 | 28.2 | 9.12 | 5.96 | 1.17 | – | 43.7 | – | 17.7 | 49.3 | 26.2 |
| O=C(CCCCC(S)CCS)Nc1cccc(Cl)c1 (stereo not drawn) | 9.78 | 8.04 | – | – | – | 16.1 | 3.22 | 1.14 | 3.09 | 7.2 | – | 24.8 | – | – | – | – |
| CC(=O)SCCC(CCCCC(=O)Nc1cccc(Cl)c1)SC(C)=O (stereo not drawn) | – | 48.8 | – | 0.04 | 5.72 | 20.8 | – | 0.56 | 3.72 | 0.31 | 0.27 | 42.8 | – | 2.09 | 38.1 | – |
| CC(=O)SCCC(CCCCC(=O)Nc1ccccc1Cl)SC(C)=O (stereo not drawn) | 16.6 | 6.93 | 6.55 | 8.21 | 7.05 | – | 3.09 | 5.01 | 6.61 | 13.2 | 2.48 | 15.2 | – | 11.4 | – | – |
| O=C(CCCCC(CCSC(=O)c1ccccc1)SC(=O)c1ccccc1)Nc1ccc(Cl)cc1 (stereo not drawn) | 9.36 | 5.78 | 10.6 | 11.7 | 16.9 | – | 4.87 | 9.62 | 9.2 | 9.8 | 3.68 | – | 1.29 | 12.6 | – | – |
